The values that follow come from patent US8871753B2, “Macrocyclic compounds and their use as kinase inhibitors” (Incyte Corporation, priority 2008, dated 2014).

Holding throughout (format): biochemical
Assay [1] deals with T1, human JAK3 (a.a. 781-1124) (Homo sapiens, UniProt P52333).
T1 construct: JAK3 (a.a. 781-1124); His tag (N); made in house; host or cells: insect cells (baculovirus)
Briefly: In vitro JAK kinase assay (HTRF, phosphorylation of a biotinylated peptide), JAK3. In short, it runs like this: (§1)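 Phosphorylation of a biotinylated peptide by the JAK kinase domain, detected by HTRF with Eu-Py20 and SA-APC. ATP was 90 μM for JAK1, 30 μM for JAK2 and 3 μM for JAK3. Reactions ran 1 h at room temperature and were stopped with EDTA, followed by 40 min antibody binding.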
For orientation: Time-resolved FRET reads energy transfer from a long-lived donor to a nearby acceptor.

For assay [2], the target named is T2, human JAK1 (a.a. 837-1142) (Homo sapiens, UniProt P23458).
T2 construct: human JAK1 (a.a. 837-1142); His tag (N); made in house; host or cells: insect cells (baculovirus)
T2 sequence (P23458 849-1154): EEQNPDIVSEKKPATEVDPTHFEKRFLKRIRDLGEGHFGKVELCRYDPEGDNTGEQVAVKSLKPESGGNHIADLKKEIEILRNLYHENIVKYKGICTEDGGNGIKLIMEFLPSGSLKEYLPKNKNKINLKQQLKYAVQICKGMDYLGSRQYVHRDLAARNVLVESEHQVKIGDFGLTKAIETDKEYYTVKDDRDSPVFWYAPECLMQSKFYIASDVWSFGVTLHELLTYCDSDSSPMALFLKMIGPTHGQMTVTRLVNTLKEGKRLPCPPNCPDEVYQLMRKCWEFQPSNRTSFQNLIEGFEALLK
As to the kind of experiment: In vitro JAK kinase assay (HTRF, phosphorylation of a biotinylated peptide), JAK1. The settings on record: read-out: JAK1 IC50. The procedure, abridged: as §1

In assay [3] the target is T3, Recombinant Human Anaplastic Lymphoma Kinase (Homo sapiens, UniProt Q9UM73).
T3 construct: purchased Invitrogen, Carlsbad, Calif
T3 sequence (Q9UM73 19-1620): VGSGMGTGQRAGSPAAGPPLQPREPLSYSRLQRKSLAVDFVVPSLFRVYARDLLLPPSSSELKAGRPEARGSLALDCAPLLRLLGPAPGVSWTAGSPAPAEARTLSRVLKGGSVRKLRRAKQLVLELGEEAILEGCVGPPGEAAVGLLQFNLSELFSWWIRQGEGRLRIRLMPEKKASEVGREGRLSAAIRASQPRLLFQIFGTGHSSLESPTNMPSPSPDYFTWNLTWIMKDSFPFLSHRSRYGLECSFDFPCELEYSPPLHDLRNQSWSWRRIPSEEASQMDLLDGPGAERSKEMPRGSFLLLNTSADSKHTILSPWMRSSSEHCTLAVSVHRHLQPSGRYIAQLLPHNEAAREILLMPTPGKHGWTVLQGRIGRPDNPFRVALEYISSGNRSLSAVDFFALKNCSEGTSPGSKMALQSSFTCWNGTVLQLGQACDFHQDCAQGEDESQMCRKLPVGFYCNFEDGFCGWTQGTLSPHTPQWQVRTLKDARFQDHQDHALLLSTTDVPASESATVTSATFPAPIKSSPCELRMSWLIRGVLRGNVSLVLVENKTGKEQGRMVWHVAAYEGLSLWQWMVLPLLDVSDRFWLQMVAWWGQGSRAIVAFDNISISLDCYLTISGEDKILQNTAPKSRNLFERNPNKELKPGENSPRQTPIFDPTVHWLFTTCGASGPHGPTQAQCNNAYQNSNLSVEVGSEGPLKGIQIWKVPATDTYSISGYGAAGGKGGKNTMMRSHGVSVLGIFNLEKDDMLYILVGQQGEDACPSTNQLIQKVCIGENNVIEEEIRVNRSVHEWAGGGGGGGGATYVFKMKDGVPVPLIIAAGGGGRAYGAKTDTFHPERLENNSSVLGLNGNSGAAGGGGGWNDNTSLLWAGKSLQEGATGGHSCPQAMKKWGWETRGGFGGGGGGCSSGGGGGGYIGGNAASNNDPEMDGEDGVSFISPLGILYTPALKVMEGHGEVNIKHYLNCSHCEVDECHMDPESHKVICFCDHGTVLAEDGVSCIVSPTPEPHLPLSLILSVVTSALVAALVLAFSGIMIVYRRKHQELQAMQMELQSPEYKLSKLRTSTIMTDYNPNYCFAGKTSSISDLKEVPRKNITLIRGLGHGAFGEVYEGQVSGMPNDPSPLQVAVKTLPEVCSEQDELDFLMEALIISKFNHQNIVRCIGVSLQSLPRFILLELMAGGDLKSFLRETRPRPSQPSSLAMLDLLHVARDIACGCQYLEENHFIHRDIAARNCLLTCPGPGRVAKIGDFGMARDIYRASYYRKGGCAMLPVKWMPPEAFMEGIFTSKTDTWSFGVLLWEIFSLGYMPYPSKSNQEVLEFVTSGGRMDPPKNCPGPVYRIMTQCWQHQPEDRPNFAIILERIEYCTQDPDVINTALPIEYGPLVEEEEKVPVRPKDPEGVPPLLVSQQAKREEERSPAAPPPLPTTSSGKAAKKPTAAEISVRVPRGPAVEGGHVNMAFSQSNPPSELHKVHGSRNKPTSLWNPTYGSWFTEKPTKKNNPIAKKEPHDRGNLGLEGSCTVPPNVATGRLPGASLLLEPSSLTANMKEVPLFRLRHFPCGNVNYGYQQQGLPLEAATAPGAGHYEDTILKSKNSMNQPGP
As to the kind of experiment: ALK HTRF kinase assay. The procedure, abridged:
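Readout was HTRF between a Eu-W1024 anti-phosphotyrosine antibody and streptavidin-APC bound to biotinylated peptide phosphorylated by recombinant human ALK. IC50 values came from a four-parameter logistic fit.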

For assay [4], the target named is T4, human JAK2 (a.a. 828-1132) (Homo sapiens, UniProt O60674).
T4 construct: JAK2 (a.a. 828-1132); His tag (N); made in house; host or cells: insect cells (baculovirus)
T4 sequence (O60674 828-1132): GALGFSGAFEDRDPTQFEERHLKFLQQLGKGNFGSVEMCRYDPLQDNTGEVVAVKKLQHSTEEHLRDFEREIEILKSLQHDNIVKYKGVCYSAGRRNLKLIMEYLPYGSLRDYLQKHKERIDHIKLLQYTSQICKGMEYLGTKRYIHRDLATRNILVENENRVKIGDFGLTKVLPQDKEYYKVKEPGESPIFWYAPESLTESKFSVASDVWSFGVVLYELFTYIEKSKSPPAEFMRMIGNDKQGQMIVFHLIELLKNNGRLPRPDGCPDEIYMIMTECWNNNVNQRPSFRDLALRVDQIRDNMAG
Briefly: In vitro JAK kinase assay (HTRF, phosphorylation of a biotinylated peptide), JAK2. The procedure, abridged: as §1

For a further assay, the target named is TYK2 (Homo sapiens, UniProt P29597). As to the kind of experiment: TYK2 kinase inhibition (Table A1).
Chain of TYK2 (P29597 whole entry): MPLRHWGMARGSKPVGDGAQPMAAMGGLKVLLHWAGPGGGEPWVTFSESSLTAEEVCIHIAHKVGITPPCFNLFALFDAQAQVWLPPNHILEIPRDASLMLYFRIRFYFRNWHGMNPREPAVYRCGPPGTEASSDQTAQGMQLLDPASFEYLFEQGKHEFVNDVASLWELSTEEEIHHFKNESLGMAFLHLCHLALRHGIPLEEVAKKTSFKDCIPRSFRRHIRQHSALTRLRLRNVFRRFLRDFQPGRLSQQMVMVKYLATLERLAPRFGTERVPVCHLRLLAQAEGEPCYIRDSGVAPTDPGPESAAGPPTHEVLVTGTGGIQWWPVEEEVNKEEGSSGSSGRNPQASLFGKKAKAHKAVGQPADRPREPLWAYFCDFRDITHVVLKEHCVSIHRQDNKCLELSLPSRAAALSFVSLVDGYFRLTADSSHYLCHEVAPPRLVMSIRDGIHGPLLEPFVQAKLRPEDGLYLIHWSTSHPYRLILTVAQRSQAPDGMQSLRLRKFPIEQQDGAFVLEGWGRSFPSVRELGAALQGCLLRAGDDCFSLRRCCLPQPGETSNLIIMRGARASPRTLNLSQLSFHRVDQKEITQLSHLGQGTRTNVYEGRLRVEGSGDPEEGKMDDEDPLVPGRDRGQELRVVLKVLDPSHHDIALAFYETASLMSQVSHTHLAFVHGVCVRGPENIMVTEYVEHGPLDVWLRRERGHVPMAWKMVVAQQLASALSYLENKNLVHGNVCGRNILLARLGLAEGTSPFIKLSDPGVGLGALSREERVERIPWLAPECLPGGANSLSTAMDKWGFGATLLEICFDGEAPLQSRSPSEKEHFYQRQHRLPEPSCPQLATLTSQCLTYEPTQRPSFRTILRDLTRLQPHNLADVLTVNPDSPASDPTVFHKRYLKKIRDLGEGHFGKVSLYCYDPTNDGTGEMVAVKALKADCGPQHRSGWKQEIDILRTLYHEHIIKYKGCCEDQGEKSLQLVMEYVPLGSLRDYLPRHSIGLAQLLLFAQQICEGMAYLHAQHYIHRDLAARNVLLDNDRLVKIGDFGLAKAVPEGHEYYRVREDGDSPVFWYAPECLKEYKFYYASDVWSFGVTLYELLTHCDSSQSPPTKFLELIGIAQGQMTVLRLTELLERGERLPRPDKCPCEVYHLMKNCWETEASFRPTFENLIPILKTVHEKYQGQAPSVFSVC
[5] abbreviates: percentage inhibition of the example compound at a concentration of 500 nM or 1 mM (not specified which).
Where [6] appears, read: method AA1 (3 μM ATP) or AA2 (1000 μM ATP), not stated per value.
[7] abbreviates: method AA1 (90 μM ATP) or AA2 (1000 μM ATP), not stated per value.
Setting [8] is: compound at 500 nM or 1 mM, 90 μM ATP.
Setting [9] is: method AA1 (30 μM ATP) or AA2 (1000 μM ATP), not stated per value.
Setting [10] is: compound at a concentration of 500 nM or 1 mM (not specified), cells shown as percentage.
Setting [11] is: Table B1, cells without percent sign.

Counter-ions that a name gives are not always drawn. Like-named read-outs stand apart in the source and are kept apart here.

T1 sequence (P52333 781-1124): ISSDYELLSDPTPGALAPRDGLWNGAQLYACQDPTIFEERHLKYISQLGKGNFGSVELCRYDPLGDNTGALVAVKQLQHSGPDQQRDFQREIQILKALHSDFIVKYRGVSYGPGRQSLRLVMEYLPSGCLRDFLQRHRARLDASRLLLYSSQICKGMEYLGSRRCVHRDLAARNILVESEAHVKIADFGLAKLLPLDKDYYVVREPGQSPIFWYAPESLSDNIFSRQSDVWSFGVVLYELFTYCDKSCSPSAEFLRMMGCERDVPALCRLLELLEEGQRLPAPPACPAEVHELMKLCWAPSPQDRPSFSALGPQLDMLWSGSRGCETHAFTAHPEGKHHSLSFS

For the molecule `N#Cc1cccnc1N1CCN(C(=O)Nc2ccc3cc2CCc2cncc(c2)Nc2ncc(Cl)c(n2)N3)CC1` [Example B311, N-[6-Chloro-2,4,8,18,22-pentaazatetracyclo[14.3.1.1(3,7).1(9,13)]docosa-1(20),3(22),4,6,9(21),10,12,16,18-nonaen-12-yl]-4-(3-cyanopyridin-2-yl)piperazine-1-carboxamide tris(trifluoroacetate)], the IC50 (usually the concentration that inhibits the measured activity by half) was greater than 400 nM in assay [1] (Table B1), 20 nM in assay [2] (Table B1), 170 nM in assay [4] (Table B1) and 146 nM against TYK2 (Table B1). In addition, in assay [3] (setting [5]), the “ALK % of inhibition at a concentration of 500 nM or 1 mM” value (from here on “ALK % of inhibition”) worked out at 67%.
Regarding `N#Cc1ccccc1S(=O)(=O)N1CCC(CC(=O)Nc2ccc3cc2CCc2cncc(c2)Nc2ncc(Cl)c(n2)N3)CC1` [Example A198, N-[6-Chloro-2,4,8,18,22-pentaazatetracyclo[14.3.1.1(3,7).1(9,13)]docosa-1(20),3(22),4,6,9(21),10,12,16,18-nonaen-12-yl]-2-{1-[(2-cyanophenyl)sulfonyl]piperidin-4-yl}acetamide bis(trifluoroacetate)], the IC50 was greater than 200 nM in assay [1] (setting [6]), 0.4 nM in assay [2] (setting [7]), 50 nM in assay [4] (setting [9]) and 50 nM against TYK2. Also, the “ALK % of inhibition” value in assay [3] (setting [8]) is 56%.
In the case of `Cn1ccc2c(NC(=O)Nc3ccc4cc3CCc3cccc(c3)Nc3ncc(Cl)c(n3)N4)cccc21` [Example B125, N-[6-Chloro-2,4,8,22-tetraazatetracyclo[14.3.1.1(3,7).1(9,13)]docosa-1(20), 3(22),4,6,9(21),10,12,16,18-nonaen-12-yl]-N′-(1-methyl-1H-indol-4-yl)urea trifluoroacetate], the IC50 in assay [1] (Table B1) is 76 nM; in assay [2] (Table B1), 2.8 nM; in assay [4] (Table B1), 10 nM; at TYK2 (Table B1), 30 nM. Further, the “ALK % of inhibition” value in assay [3] (setting [10]) was 34%.
In the case of `O=C(Nc1ccccc1)Nc1cc2cc(c1)Nc1nc(ncc1Cl)Nc1cccc(c1)CC2` [Example B202, N-[6-Chloro-2,4,8,22-tetraazatetracyclo[14.3.1.1(3,7).1(9,13)]docosa-1(20),3(22),4,6,9(21),10,12,16,18-nonaen-11-yl]-N′-phenylurea trifluoroacetate], the IC50 in assay [1] (Table B1) is 101 nM; in assay [2] (Table B1), 36 nM; in assay [3] (setting [11]), 3600 nM; in assay [4] (Table B1), 56 nM; against TYK2 (Table B1) it was 205 nM.
In the case of `O=C(Nc1ccc2cc1CCc1cccc(c1)Nc1ncc(Cl)c(n1)N2)Nc1ccccc1OC(F)F` [Example B128, N-[6-Chloro-2,4,8,22-tetraazatetracyclo[14.3.1.1(3,7).1(9,13)]docosa-1(20), 3(22),4,6,9(21),10,12,16,18-nonaen-12-yl]-N′-[2-(difluoromethoxy)phenyl]urea trifluoroacetate], the half-maximal inhibitory concentration (IC50) in assay [1] (Table B1) came to 13 nM; in assay [2] (Table B1), 0.69 nM; in assay [4] (Table B1) it was 1.8 nM; at TYK2 (Table B1) it was 9.2 nM. In addition, the “ALK % of inhibition” value in assay [3] (setting [10]) is on record as 32%.
The corresponding values for `NC1CCN(c2ccnc(Nc3ccc4cc3CCc3cccc(c3)Nc3ncc(Cl)c(n3)N4)n2)CC1` [Example B281, N-[4-(4-Aminopiperidin-1-yl)pyrimidin-2-yl]-6-chloro-2,4,8,22-tetraazatetracyclo[14.3.1.1(3,7).1(9,13)]docosa-1(20),3(22),4,6,9(21),10,12,16,18-nonaen-12-amine tris(trifluoroacetate)] are 1400 nM, 15 nM, 150 nM, 2300 nM and 24%.
As for `Cc1ccnc(N2CCC(CC(=O)Nc3ccc4cc3CCc3cncc(c3)Nc3ncc(Cl)c(n3)N4)CC2)c1` [Example A176, N-[6-Chloro-2,4,8,18,22-pentaazatetracyclo[14.3.1.1(3,7).1(9,13)]docosa-1(20),3(22),4,6,9(21),10,12,16,18-nonaen-12-yl]-2-[1-(4-methylpyridin-2-yl)piperidin-4-yl]acetamide tris(trifluoroacetate)], the IC50 in assay [1] (setting [6]) is greater than 200 nM; in assay [2] (setting [7]), 51 nM; in assay [4] (setting [9]), greater than 200 nM; at TYK2, greater than 200 nM. Also, in assay [3] (setting [8]), the “ALK % of inhibition” value is recorded as 25%.
`Cc1cnc2nc1Nc1cccc(c1)/C=C\c1cccc(c1)N2` [Example B1, (14Z)-6-Methyl-2,4,8,22-tetraazatetracyclo[14.3.1.1(3,7).1(9,13)]docosa-1(20),3(22),4,6,9(21),10,12,14,16,18-decaene trifluoroacetate]: the IC50 in assay [1] (Table B1) is greater than 100 nM; in assay [2] (Table B1), 11 nM; in assay [3] (setting [11]) it was 786 nM; in assay [4] (Table B1) it was 5.1 nM; at TYK2 (Table B1), 17 nM.
`CC(C)S(=O)(=O)c1ccc2cc1Nc1nc(ncc1Cl)Nc1cccc(c1)CC2` [Example A8, 6-Chloro-10-(isopropylsulfonyl)-2,4,8,22-tetraazatetracyclo[14.3.1.1(3,7).1(9,13)]docosa-1(20),3(22),4,6,9(21),10,12,16,18-nonaene trifluoroacetate]: the IC50 in assay [1] (setting [6]) was found to be 20 nM; in assay [2] (setting [7]), 51 nM; in assay [3] (90 μM ATP), 80 nM; in assay [4] (setting [9]), 52 nM; at TYK2, 80 nM.
For `COc1ccc(CN2CCN(Cc3cc4cc(c3)Nc3nc(ncc3Cl)Nc3cccc(c3)CC4)CC2)cc1` [Example B197, 6-Chloro-11-{[4-(4-methoxybenzyl)piperazin-1-yl]methyl}-2,4,8,22-tetraazatetracyclo[14.3.1.1(3,7).1(9,13)]docosa-1(20),3(22),4,6,9(21),10,12,16,18-nonaene tris(trifluoroacetate)], the IC50 in assay [1] (Table B1) is 138 nM; in assay [2] (Table B1), 18 nM; in assay [3] (setting [11]), greater than 1000 nM; in assay [4] (Table B1), 2.2 nM; on TYK2 (Table B1) it was 188 nM.
As to `Cc1ncoc1C(=O)Nc1cc2cc(c1)Nc1nc(ncc1Cl)Nc1cccc(c1)CC2` [Example B210, N-[6-Chloro-2,4,8,22-tetraazatetracyclo[14.3.1.1(3,7).1(9,13)]docosa-1(20),3(22),4,6,9(21),10,12,16,18-nonaen-11-yl]-4-methyl-1,3-oxazole-5-carboxamide trifluoroacetate], the IC50 was 76 nM in assay [1] (Table B1); 62 nM in assay [2] (Table B1); greater than 1000 nM in assay [3] (setting [11]); 42 nM in assay [4] (Table B1); 357 nM against TYK2 (Table B1).
In the case of `O=C(Nc1ccc2cc1CCc1cccc(c1)Nc1ncc(Cl)c(n1)N2)N[C@H]1CCN(C(=O)c2ccncc2)C1` [Example B234, N-[6-Chloro-2,4,8,22-tetraazatetracyclo[14.3.1.1(3,7).1(9,13)]docosa-1(20),3(22),4,6,9(21),10,12,16,18-nonaen-12-yl]-N′-[(3S)-1-isonicotinoylpyrrolidin-3-yl]urea bis(trifluoroacetate)], the IC50 in assay [1] (Table B1) worked out at 40 nM; in assay [2] (Table B1), 4 nM; in assay [4] (Table B1) it was 6.5 nM; on TYK2 (Table B1), 11 nM. Besides, the “ALK % of inhibition” value in assay [3] (setting [10]) stood at 31%.
`O=C(Nc1cccc(Cl)c1)c1cc2cc(c1)Nc1nc(ncc1Cl)Nc1cccc(c1)CC2` [Example B13, 6-Chloro-N-(3-chlorophenyl)-2,4,8,22-tetraazatetracyclo[14.3.1.1(3,7).1(9,13)]docosa-1(20),3(22),4,6,9(21),10,12,16,18-nonaene-11-carboxamide trifluoroacetate]: the IC50 is 682 nM in assay [1] (Table B1); 900 nM in assay [2] (Table B1); greater than 1000 nM in assay [3] (setting [11]); 171 nM in assay [4] (Table B1); greater than 1000 nM against TYK2 (Table B1).
For the molecule `CN(Cc1ccc2cc1CCc1cncc(c1)Nc1ncc(Cl)c(n1)N2)CC1CCNCC1` [Example B339, 1-[6-Chloro-2,4,8,18,22-pentaazatetracyclo[14.3.1.1(3,7).1(9,13)]docosa-1(20),3(22),4,6,9(21),10,12,16,18-nonaen-12-yl]-N-methyl-N-(piperidin-4-ylmethyl)methanamine Tetrahydrochloride], the concentration for half-maximal inhibition (IC50) is greater than 400 nM in assay [1] (Table B1), 172 nM in assay [2] (Table B1), greater than 400 nM in assay [4] (Table B1) and greater than 400 nM against TYK2 (Table B1). In addition, the “ALK % of inhibition” value in assay [3] (setting [5]) amounted to 41%.
Regarding `O=C(Nc1ccc2cc1CCc1cccc(c1)Nc1ncc(Cl)c(n1)N2)N[C@H]1CCNC1` [Example B167, N-[6-Chloro-2,4,8,22-tetraazatetracyclo[14.3.1.1(3,7).1(9,13)]docosa-1(20),3(22),4,6,9(21),10,12,16,18-nonaen-12-yl]-N′-[(3S)-pyrrolidin-3-yl]urea bis(trifluoroacetate)], the IC50 in assay [1] (Table B1) stood at 43 nM; in assay [2] (Table B1), 3.7 nM; in assay [4] (Table B1) it was 12 nM; against TYK2 (Table B1) it was 30 nM. Also, the “ALK % of inhibition” value in assay [3] (setting [10]) was found to be 17%.
